Source: patent US20260007639A1, “COMPOUNDS FOR THE TREATMENT OF NEUROMUSCULAR DISORDERS” (NMD PHARMA A/S, priority 2017, published 2026)

Assays:
rat soleus muscles [1] = test: Recovery of force in isolated rat soleus nerve-muscle preparations after 115 nM tubocurarine, 50 μM compound (Table 8); conditions: 40 mins exposure
Description: Force traces from a representative muscle stimulated to contract in 1) control condition before addition of neuromuscular blocking agent, 2) the force response to stimulation after 90 minutes incubation with Tubocurarine. […] The traces presented in FIG. 12A (1, 2, 3), correspond to the dotted lines in FIG. 12B, respectively.
Recovery of force is quantified as the percentage of the force prior to tubocurarine that is recovered by the compound.
The current invention relates to compounds that inhibit CIC-1 ion channels and increase muscle excitability and thereby improve muscle function in clinical conditions where muscle activation is failing. Such conditions result in loss of contractile function of skeletal muscle, weakness and excessive fatigue. In this series of experiments the compounds were tested for their ability to restore contractile function of isolated rat muscle when the neuromuscular transmission had been compromised akin to neuromuscular disorders.
Experimentally, soleus muscles from 4-5 wk old rats were isolated with the motor nerve remaining attached. The nerve-muscle preparations were mounted in experimental setups that enabled electrical stimulation of the motor nerve. Stimulation of the motor nerve led to activation of the muscle fibres and ensuing force production that was recorded.
After mounting the nerve-muscle preparation in the experimental setup, the contractile function of the muscle was initially assessed under the control conditions (FIG. 2A). […] The experimental condition mimics the failing neuromuscular transmission in a range of neuromuscular disorders. After addition of tubocurarine the contractile force declined over the next 90 mins to 10-50% of the control force. 50 μM of the test compound was then added and the contractile force recovered despite the continued presence of tubocurarine. To quantify the ability of the compound to restore force the percentage of the initial force that was restored was determined after 40 mins of compound exposure (FIG. 2B) and the point increase is reported in Table 8.

CIC-1 channels = biological target: T1, CIC-1 channels (Rattus norvegicus, UniProt P35524); test: Electrophysiological measurement of compound inhibition of CIC-1 (Gm) in rat soleus muscle fibres: EC50 (Table 7)
T1 sequence (P35524 1-994): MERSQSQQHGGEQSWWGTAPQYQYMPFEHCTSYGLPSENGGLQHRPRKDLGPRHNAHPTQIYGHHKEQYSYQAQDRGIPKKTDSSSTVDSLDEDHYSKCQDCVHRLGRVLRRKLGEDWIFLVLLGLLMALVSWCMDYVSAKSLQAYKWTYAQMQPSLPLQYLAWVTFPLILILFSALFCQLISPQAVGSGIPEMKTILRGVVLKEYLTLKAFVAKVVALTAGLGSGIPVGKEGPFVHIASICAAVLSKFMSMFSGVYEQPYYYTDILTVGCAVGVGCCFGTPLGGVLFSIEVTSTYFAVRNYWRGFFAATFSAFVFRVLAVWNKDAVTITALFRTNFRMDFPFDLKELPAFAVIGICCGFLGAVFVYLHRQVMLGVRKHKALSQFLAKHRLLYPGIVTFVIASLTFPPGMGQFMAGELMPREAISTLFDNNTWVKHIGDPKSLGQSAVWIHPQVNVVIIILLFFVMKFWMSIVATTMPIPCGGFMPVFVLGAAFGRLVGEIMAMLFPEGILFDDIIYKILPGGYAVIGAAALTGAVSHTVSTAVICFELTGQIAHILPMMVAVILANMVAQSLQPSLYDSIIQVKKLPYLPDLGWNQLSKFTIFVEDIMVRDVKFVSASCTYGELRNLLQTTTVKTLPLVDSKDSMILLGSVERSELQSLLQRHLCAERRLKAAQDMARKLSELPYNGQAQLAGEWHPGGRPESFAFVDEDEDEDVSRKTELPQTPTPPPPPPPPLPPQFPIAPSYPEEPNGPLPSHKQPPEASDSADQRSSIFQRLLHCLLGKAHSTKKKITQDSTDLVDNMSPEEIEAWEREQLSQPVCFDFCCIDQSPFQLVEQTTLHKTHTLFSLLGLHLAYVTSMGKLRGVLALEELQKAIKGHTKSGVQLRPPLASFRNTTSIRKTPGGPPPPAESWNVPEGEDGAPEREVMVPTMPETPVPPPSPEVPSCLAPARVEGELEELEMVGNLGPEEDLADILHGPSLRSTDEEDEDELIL

human CIC-1 channels = biological target: T2, human CIC-1 channels (Homo sapiens, UniProt P35523); test: Automated patch-clamp on human CIC-1 expressed in CHO cells: shift of half activation voltage ΔV1/2; format: cell-based; conditions: compound in intracellular solution vs control cell patches; CHO cells expressing human CIC-1
T2 construct: host or cells: CHO (Chinese hamster ovary) cells constitutively expressing human ClC-1
T2 sequence (P35523 whole entry): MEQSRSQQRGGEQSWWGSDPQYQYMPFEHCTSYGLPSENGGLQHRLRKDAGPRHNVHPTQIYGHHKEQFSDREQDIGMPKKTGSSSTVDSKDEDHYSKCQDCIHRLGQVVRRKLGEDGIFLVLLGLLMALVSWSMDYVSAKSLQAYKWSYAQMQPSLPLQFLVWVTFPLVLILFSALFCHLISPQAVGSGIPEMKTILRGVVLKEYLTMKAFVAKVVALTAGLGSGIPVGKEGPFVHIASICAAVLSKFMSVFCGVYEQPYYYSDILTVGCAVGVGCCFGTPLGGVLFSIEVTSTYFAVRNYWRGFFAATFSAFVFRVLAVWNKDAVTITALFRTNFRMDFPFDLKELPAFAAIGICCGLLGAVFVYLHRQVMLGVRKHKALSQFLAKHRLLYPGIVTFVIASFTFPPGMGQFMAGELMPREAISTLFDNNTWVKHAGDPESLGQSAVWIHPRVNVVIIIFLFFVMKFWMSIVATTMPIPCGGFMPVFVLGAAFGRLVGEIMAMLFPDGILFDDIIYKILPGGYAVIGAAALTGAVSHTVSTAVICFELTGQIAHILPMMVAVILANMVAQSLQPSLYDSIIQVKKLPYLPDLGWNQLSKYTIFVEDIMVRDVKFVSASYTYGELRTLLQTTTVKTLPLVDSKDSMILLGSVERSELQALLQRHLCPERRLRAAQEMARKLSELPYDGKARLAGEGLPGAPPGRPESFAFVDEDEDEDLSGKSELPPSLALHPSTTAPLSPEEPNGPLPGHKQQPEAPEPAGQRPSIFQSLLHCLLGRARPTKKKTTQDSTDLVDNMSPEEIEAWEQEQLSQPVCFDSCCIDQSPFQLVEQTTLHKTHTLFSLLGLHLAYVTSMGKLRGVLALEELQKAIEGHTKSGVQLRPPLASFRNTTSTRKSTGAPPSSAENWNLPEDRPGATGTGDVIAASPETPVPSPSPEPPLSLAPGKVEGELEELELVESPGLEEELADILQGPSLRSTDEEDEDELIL
Description: FIGS. 13A-13B: FIG. 13A illustrates the voltage protocol used to evoke currents in whole cell patches of CHO cells expressing human CIC-1 channels.
Experiments were performed using an automated patch clamp system that allowed high throughput testing of whole cell patches together with both intracellular and extracellular addition of compound.
Automated whole cell patch clamp experiments were performed with the Qpatch 16 system (Sophion Bioscience, Ballerup, Denmark) at room temperature. Data acquisition and analysis were performed in the Qassay software (ver. 5.6, Odense).
To evoke CIC-1 currents in whole cell patches, the membrane potential was initially stepped from a holding potential of −30 mV to +60 mV for 100 ms and then to various test voltages (sweeps) ranging from +120 mV to −140 mV in steps of 20 mV for 300 ms. To obtain tail currents, the membrane potential was stepped to −100 mV after each test voltage for 300 ms and then relaxed to −30 mV for 2 sec between sweeps (FIG. 3).
I/V relationships for whole cell instant and steady state current amplitudes were obtained by plotting average current densities at the beginning and at the end of the 300 ms step against the membrane potential (FIG. 4).
In order to determine the relative overall open probability (Po), the instantaneous tail currents were normalized to the maximal tail current obtained following the most positive voltage step and plotted against the test voltage. Plots of normalized tail currents from each whole cell patch were then fitted to a Boltzmann function allowing determination of half activation voltages (V1/2, FIG. 5).
For automated patch clamp experiments extracellular solutions contained: 2 mM CaCl2), 1 mM MgCl2, 10 mM HEPES, 4 mM KCl, 145 mM NaCl, 10 mM Glucose, pH adjusted to 7.4 with NaOH (2 M). Osmolality adjusted to ˜320 using sucrose.
Intracellular solutions contained: 80 mM CsF, 60 mM CsCl, 5/1 mM KOH/EGTA, 10 mM HEPES, 10 mM NaCl, pH adjusted to 7.2 with NaOH (2 M). Osmolality adjusted to ˜320 mOsm using sucrose.
Cells used in patch clamp experiments were Chinese hamster ovary cells (CHO) constitutively expressing human CIC-1 channels. The amino acid sequence encoded by the cDNA used to create this cell line was identical to the translated sequence for GenBank accession number NM_000083.2. Cells were produced by Charles River (Catalogue CT6175, Cleveland OH, USA) in a cryopreserved format. Experiments were performed on the cells directly after thawing (3×10^6 cells used in each experiment).
To evaluate the compound effect on CIC-1, when applied directly to the intracellular side of the cell membrane, the half activation voltage, V1/2, was determined from whole cell patches with compound added to the intracellular solution and then compared to V1/2 determined from control cell patches with only vehicle added to the intracellular solution. Additionally, the effect of extracellular added compound was evaluated by determine V1/2 and steady state current amplitudes before and after exchanging the extracellular solution to contain compound.
The difference in half activation voltage of CIC-1 channels, ΔV1/2, was determined as the difference between the cell patches treated intracellularly with compound and control cells patches and is reported in Table 4 below. A positive shift in ΔV 1/2 is reflecting CIC-1 channel inhibition by the tested compound. P-values of <0.05 is considered significant.

female Lewis rats = test: In situ isometric hindlimb force in anaesthetised rats with neuromuscular transmission partially inhibited by Cisatracurium; format: in vivo, rat; conditions: 80 Hz stimulation, Cisatracurium infusion
Description: Isometric hindlimb force was measured in 12-week old female Lewis rats in the presence and absence of compound.
Rats were placed under anesthesia with isoflurane (2-4%), intubated and subsequently connected to a micro ventilator (Microvent 1, Hallowell EMC, US). Two stimulation electrodes were inserted through the skin to stimulate the sciatic nerve. A small incision was made proximal to the ankle, to expose the Achilles tendon, which was tied by cotton string, and connected to a force transducer (Fort250, World Precision Instruments) with adjustable position (Vernier control). The Achilles tendon was then cut distal to the attached cotton string. The rat was placed on a heated pad, and to prevent movement artefacts from contraction of the ankle dorsiflexors, the foot was fixated by tape on a footplate.
Muscle contractile properties were assessed by applying an electrical current (under supramaximal voltage conditions) to the nerve and recording the force generated by the muscle. The muscle was stretched until maximal force was obtained, when assessed by 2 Hz stimulation. Isometric force was measured every 30 seconds at 12 Hz (Twitch), 10 pulses, and at every 5 minutes at 80 Hz (Tetanic) for 1 second (80 pulses). This stimulation pattern was employed throughout the experiment, expect in few cases where 80 Hz stimulation was replaced by 12 Hz (10 pulses). […] When the level of neuromuscular inhibition was stable, the test article was injected i.v. at the chosen concentration. The effect of test article was assessed on its ability to increase force generated from the stimulation pattern applied. The effect was assessed in the ability to increase force per se (tetanic, 80 Hz, stimulation), and the ratio between individual twitch peaks (12 Hz stimulation). The effect was monitored for at least 1 hour after injection of test article. In addition, the time from injection of test article to maximal effect on force (both twitch and tetanic) was noted and the time for the effect to disappear (return to baseline), if possible. When appropriate the infusion of neuromuscular blocking agent was ceased, with the stimulation pattern continued, and the return of force to control levels was monitored. Animals were sacrificed by cervical dislocation while still fully sedated.

rat soleus muscles [2] = test: Recovery of nerve-stimulated force in isolated rat soleus muscles with ACh receptors inhibited by 2 μM rocuronium; conditions: 2 μM rocuronium alone; 8 muscles
Description: In a separate series of experiments with 8 isolated rat soleus muscles, ACh receptors were inhibited using 2 μM rocuronium, which is a clinically used neuromuscular blocking agent. Under these conditions the nerve-stimulated force was reduced to 51±5% of force before rocuronium. […] This illustrates the potential of these compounds to be used as reversal agents.

SMILES | Point increase (%) of initial force that was restored (rat soleus muscles [1]) | EC50 (CIC-1 channels) | Δ1/2 (mV) (human CIC-1 channels) | average increase in tetanic force (female Lewis rats; 40.0 mg/kg i.v.) | average increase in tetanic force (female Lewis rats; 26.5 mg/kg i.v.) | nerve-stimulated force, % of force before rocuronium (rat soleus muscles [2])
CC[C@H](Oc1ccc(Br)cc1-c1ccon1)C(=O)O [Compound A-2, (2S)-2-[4-bromo-2-(1,2-oxazol-3-yl)phenoxy]butanoic acid] | 27% | 4.3 µM | 7.2 mV |  |  | 
C[C@H](Oc1ccc(Br)cc1-c1ccon1)C(=O)O [Compound A-16, (2S)-2-[4-bromo-2-(1,2-oxazol-3-yl)phenoxy]propanoic acid] | 48% | 1.8 ± 1.1 µM | 14.1 mV |  |  | 
C[C@H](Oc1ccc(Br)cc1-c1ccno1)C(=O)O [Compound A-22, (2S)-2-[4-bromo-2-(1,2-oxazol-5-yl)phenoxy]propanoic acid] | 27% | 7.5 µM | 9.3 mV |  |  | 
O=C(O)[C@H](CC1CC1)Oc1ccc(Br)cc1-c1ccon1 [Compound A-33, (2S)-2-[4-bromo-2-(1,2-oxazol-3-yl)phenoxy]-3-cyclopropylpropanoic acid] | 35% | 4.6 µM | 15.1 mV |  |  | 
C[C@H](Oc1ccc(Cl)cc1-c1ccon1)C(=O)O [Compound A-34, (2S)-2-[4-chloro-2-(1,2-oxazol-3-yl)phenoxy]propanoic acid] | 43% | 2 µM | 8.1 mV |  |  | 
O=C(O)[C@H](CC1CC1)Oc1ccc(Cl)cc1-c1ccon1 [Compound A-41, (2S)-2-[4-chloro-2-(1,2-oxazol-3-yl)phenoxy]-3-cyclopropylpropanoic acid] | 25% | 4.3 µM |  | 36.4% |  | 
C[C@H](Oc1ccc(Br)cc1-c1cocn1)C(=O)O [Compound A-42, (2S)-2-[4-bromo-2-(1,3-oxazol-4-yl)phenoxy]propanoic acid] | 14% | 3.2 µM | 6.8 mV |  |  | 
C[C@H](Oc1ccc(Br)cc1-c1nncs1)C(=O)O [Compound A-65, (2S)-2-[4-bromo-2-(1,3,4-thiadiazol-2-yl)phenoxy]propanoic acid] |  |  | 12.8 mV |  |  | 
CCOC[C@H](Oc1ccc(Br)cc1-c1ccon1)C(=O)O [Compound A-81, (2S)-2-[4-bromo-2-(1,2-oxazol-3-yl)phenoxy]-3-ethoxypropanoic acid] | 45% | 8.1 ± 1.2 µM |  |  | 52.9% | 
C[C@H](Oc1ccc(Cl)cc1-c1ccsn1)C(=O)O [Compound A-83, (2S)-2-[4-chloro-2-(1,2-thiazol-3-yl)phenoxy]propanoic acid] |  |  | 10.3 mV |  |  | 
C=CC[N+]1([C@H]2C[C@H]3[C@@H]4CC[C@H]5C[C@H](O)[C@@H](N6CCOCC6)C[C@]5(C)[C@H]4CC[C@]3(C)[C@H]2OC(C)=O)CCCC1 [rocuronium, reference compound] |  |  |  |  |  | 51±5%
